# Target: T1, GHS-R (Homo sapiens, UniProt Q92847)
# T1 construct: expressed in transfected cells; host or cells: COS-7 cells
# Assay: GHS-R competition binding assay (Ki of GHS-R antagonizing compounds)
# Method: One exemplary binding assay is as follows: GHS-R expressing COS-7 cells cultured at a density of 1×10^5 cells per well so that binding is assayed in the range of about 5-8 % binding of the radioactive ligand. For example, the cells can express an endogenous nucleic acid encoding GHS-R or an exogenous nucleic acid encoding GHS-R. Cells transfected with an exogenous nucleic acid encoding GHS-R can be used, e.g., two days, after transfection. Competition binding experiments are performed for 3 hours at 4° C. using 25 pM of ^125I-ghrelin in 0.5 ml of 50 mM HEPES buffer, pH 7.4, supplemented with 1 mM CaCl2, 5 mM MgCl2, and 0.1% (w/v) bovine serum albumin, 40 mg/ml bacitracin. Non-specific binding can be determined as the binding in the presence of […] of unlabeled ghrelin. Cells are washed twice in 0.5 ml of ice-cold buffer and then lysed with 0.5-1 ml of lysis buffer (8 M Urea, 2% NP40 in 3 M acetic acid). After washing and lysis, the bound radioactivity is counted. Assays can be run in duplicate or triplicate, e.g., to provide statistical power.
# Values of the dissociation and inhibition constants (Kd and Ki) can be estimated from competition binding experiments using the equation: Kd=IC50-L and Ki=IC50/(1+L/Kd), where L is the concentration of radioactive ligand. Bmax values can be estimated from competition binding experiments using the equation Bmax=B0 IC50/[ligand], where B0 is the specifically bound radioligand.
# T1 sequence (Q92847 whole entry, species assumed): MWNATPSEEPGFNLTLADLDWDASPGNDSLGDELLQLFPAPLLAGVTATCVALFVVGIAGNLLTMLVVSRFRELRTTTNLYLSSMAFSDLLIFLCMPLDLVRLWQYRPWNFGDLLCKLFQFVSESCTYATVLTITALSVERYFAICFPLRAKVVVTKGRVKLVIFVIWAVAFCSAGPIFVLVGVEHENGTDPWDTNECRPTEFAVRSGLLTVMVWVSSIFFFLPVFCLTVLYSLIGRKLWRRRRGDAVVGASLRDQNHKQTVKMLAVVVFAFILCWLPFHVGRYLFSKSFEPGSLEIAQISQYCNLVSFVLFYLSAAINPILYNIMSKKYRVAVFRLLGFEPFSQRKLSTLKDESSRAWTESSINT
row,Compound,Ki [µM]
1,"CN(C)CCS(=O)(=O)N[C@H](COCc1ccccc1)C(=O)N1CCC2(CC1)CN(S(C)(=O)=O)c1ccccc12 [Compound 128, (R)-N-(3-(benzyloxy)-1-(1-(methylsulfonyl)spiro[indoline-3,4′-piperidine]-1′-yl)-1-oxopropan-2-yl)-2-(dimethylamino)ethanesulfonamide]",0.1 to 1
2,"CN1CCN(CCS(=O)(=O)N[C@H](COCc2ccccc2)C(=O)N2CCC3(CC2)CN(S(C)(=O)=O)c2ccccc23)CC1 [Compound 129, (R)-N-(3-(benzyloxy)-1-(1-(methylsulfonyl)spiro[indoline-3,4′-piperidine]-1′-yl)-1-oxopropan-2-yl)-2-(4-methylpiperazin-1-yl)ethanesulfonamide]",> 1
3,"CCN(C)CCS(=O)(=O)N[C@H](COCc1ccccc1)C(=O)N1CCC2(CC1)CN(S(C)(=O)=O)c1ccccc12 [Compound 130, (R)-N-(3-(benzyloxy)-1-(1-(methylsulfonyl)spiro[indoline-3,4′-piperidine]-1′-yl)-1-oxopropan-2-yl)-2-(ethyl(methyl)amino)ethanesulfonamide]",0.1 to 1
4,"CC(C)N(C)CCS(=O)(=O)N[C@H](COCc1ccccc1)C(=O)N1CCC2(CC1)CN(S(C)(=O)=O)c1ccccc12 [Compound 131, (R)-N-(3-(benzyloxy)-1-(1-(methylsulfonyl)spiro[indoline-3,4′-piperidine]-1′-yl)-1-oxopropan-2-yl)-2-(isopropyl(methyl)amino)ethanesulfonamide]",0.1 to 1
5,"CCN(CC)CCS(=O)(=O)N[C@H](COCc1ccccc1)C(=O)N1CCC2(CC1)CN(S(C)(=O)=O)c1ccccc12 [Compound 132, (R)-N-(3-(benzyloxy)-1-(1-(methylsulfonyl)spiro[indoline-3,4′-piperidine]-1′-yl)-1-oxopropan-2-yl)-2-(diethylamino)ethanesulfonamide]",< 0.1
6,"CCN(CCS(=O)(=O)N[C@H](COCc1ccccc1)C(=O)N1CCC2(CC1)CN(S(C)(=O)=O)c1ccccc12)C(C)C [Compound 133, (R)-N-(3-(benzyloxy)-1-(1-(methylsulfonyl)spiro[indoline-3,4′-piperidine]-1′-yl)-1-oxopropan-2-yl)-2-(ethyl(isopropyl)amino)ethanesulfonamide]",> 1
7,"CS(=O)(=O)N1CC2(CCN(C(=O)[C@@H](COCc3ccccc3)NS(=O)(=O)CCN3CCC3)CC2)c2ccccc21 [Compound 134, (R)-2-(azetidin-1-yl)-N-(3-(benzyloxy)-1-(1-(methylsulfonyl)spiro[indoline-3,4′-piperidine]-1′-yl)-1-oxopropan-2-yl)ethanesulfonamide]",> 1
8,"CS(=O)(=O)N1CC2(CCN(C(=O)[C@@H](COCc3ccccc3)NS(=O)(=O)CCN3CCCCC3)CC2)c2ccccc21 [Compound 135, (R)-N-(3-(benzyloxy)-1-(1-(methylsulfonyl)spiro[indoline-3,4′-piperidine]-1′-yl)-1-oxopropan-2-yl)-2-(piperidin-1-yl)ethanesulfonamide]",0.1 to 1
9,"CS(=O)(=O)N1CC2(CCN(C(=O)[C@@H](COCc3ccccc3)NS(=O)(=O)CCN3CCCC3)CC2)c2ccccc21 [Compound 136, (R)-N-(3-(benzyloxy)-1-(1-(methylsulfonyl)spiro[indoline-3,4′-piperidine]-1′-yl)-1-oxopropan-2-yl)-2-(pyrrolidin-1-yl)ethanesulfonamide]",0.1 to 1
10,"CN1CCC(S(=O)(=O)N[C@H](COCc2ccccc2)C(=O)N2CCC3(CC2)CN(S(C)(=O)=O)c2ccccc23)CC1 [Compound 137, (R)-N-(3-(benzyloxy)-1-(1-(methylsulfonyl)spiro[indoline-3,4′-piperidine]-1′-yl)-1-oxopropan-2-yl)-1-methylpiperidine-4-sulfonamide]",< 0.1
11,"CS(=O)(=O)N1CC2(CCN(C(=O)[C@@H](COCc3ccccc3)NS(=O)(=O)CCN3CCOCC3)CC2)c2ccccc21 [Compound 138, (R)-N-(3-(benzyloxy)-1-(1-(methylsulfonyl)spiro[indoline-3,4′-piperidine]-1′-yl)-1-oxopropan-2-yl)-2-morpholinoethanesulfonamide]",> 1
12,"CC(C)(C)NCCS(=O)(=O)N[C@H](COCc1ccccc1)C(=O)N1CCC2(CC1)CN(S(C)(=O)=O)c1ccccc12 [Compound 139, (R)-N-(3-(benzyloxy)-1-(1-(methylsulfonyl)spiro[indoline-3,4′-piperidine]-1′-yl)-1-oxopropan-2-yl)-2-(tert-butylamino)ethanesulfonamide]",0.1 to 1
13,"CC(C)NCCS(=O)(=O)N[C@H](COCc1ccccc1)C(=O)N1CCC2(CC1)CN(S(C)(=O)=O)c1ccccc12 [Compound 140, (R)-N-(3-(benzyloxy)-1-(1-(methylsulfonyl)spiro[indoline-3,4′-piperidine]-1′-yl)-1-oxopropan-2-yl)-2-(isopropylamino)ethanesulfonamide]",> 1
14,"CC(C)NCCCS(=O)(=O)N[C@H](COCc1ccccc1)C(=O)N1CCC2(CC1)CN(S(C)(=O)=O)c1ccccc12 [Compound 141, (R)-N-(3-(benzyloxy)-1-(1-(methylsulfonyl)spiro[indoline-3,4′-piperidine]-1′-yl)-1-oxopropan-2-yl)-3-(isopropylamino)propane-1-sulfonamide]",< 0.1
15,"CS(=O)(=O)N1CC2(CCN(C(=O)[C@@H](COCc3ccccc3)NS(=O)(=O)CCCN3CCOCC3)CC2)c2ccccc21 [Compound 142, (R)-N-(3-(benzyloxy)-1-(1-(methylsulfonyl)spiro[indoline-3,4′-piperidine]-1′-yl)-1-oxopropan-2-yl)-3-morpholinopropane-1-sulfonamide]",> 1
16,"CC(C)(C)NCCCS(=O)(=O)N[C@H](COCc1ccccc1)C(=O)N1CCC2(CC1)CN(S(C)(=O)=O)c1ccccc12 [Compound 143, (R)-N-(3-(benzyloxy)-1-(1-(methylsulfonyl)spiro[indoline-3,4′-piperidine]-1′-yl)-1-oxopropan-2-yl)-3-(tert-butylamino)propane-1-sulfonamide]",0.1 to 1
17,"CS(=O)(=O)N1CC2(CCN(C(=O)[C@@H](COCc3ccccc3)NS(=O)(=O)CCN3C4CCCC3CC4)CC2)c2ccccc21 [Compound 144, N-((R)-3-(benzyloxy)-1-(1-(methylsulfonyl)spiro[indoline-3,4′-piperidine]-1′-yl)-1-oxopropan-2-yl)-2-(8-azabicyclo[3.2.1]octan-8-yl)ethanesulfonamide]",0.1 to 1
18,"CN1C2CCC1CC(S(=O)(=O)N[C@H](COCc1ccccc1)C(=O)N1CCC3(CC1)CN(S(C)(=O)=O)c1ccccc13)C2 (stereo partly drawn) [Compound 145, N-((R)-3-(benzyloxy)-1-(1-(methylsulfonyl)spiro[indoline-3,4′-piperidine]-1′-yl)-1-oxopropan-2-yl)-8-methyl-8-azabicyclo[3.2.1]octane-3-sulfonamide]",> 1
19,"CS(=O)(=O)N1CC2(CCN(C(=O)[C@@H](COCc3ccccc3)NS(=O)(=O)CCCCl)CC2)c2ccccc21 [Compound 146, (R)-N-(3-(benzyloxy)-1-(1-(methylsulfonyl)spiro[indoline-3,4′-piperidine]-1′-yl)-1-oxopropan-2-yl)-3-chloropropane-1-sulfonamide]",< 0.1
20,"CN1CCC(S(=O)(=O)N[C@H](COCc2ccccc2)C(=O)N2CCC3(C=Cc4ccccc43)CC2)CC1 [Compound 147, (R)-N-(3-(benzyloxy)-1-oxo-1-(spiro[indene-1,4′-piperidine]-1′-yl)propan-2-yl)-1-methylpiperidine-4-sulfonamide]",0.1 to 1
21,"CCN(CC)CCCS(=O)(=O)N[C@H](COCc1ccccc1)C(=O)N1CCC2(CC1)CN(S(C)(=O)=O)c1ccccc12 [Compound 148, (R)-N-(3-(benzyloxy)-1-(1-(methylsulfonyl)spiro[indoline-3,4′-piperidine]-1′-yl)-1-oxopropan-2-yl)-3-(diethylamino)propane-1-sulfonamide]",0.1 to 1
22,"CN(C)CCCS(=O)(=O)N[C@H](COCc1ccccc1)C(=O)N1CCC2(CC1)CN(S(C)(=O)=O)c1ccccc12 [Compound 149, (R)-N-(3-(benzyloxy)-1-(1-(methylsulfonyl)spiro[indoline-3,4′-piperidine]-1′-yl)-1-oxopropan-2-yl)-3-(dimethylamino)propane-1-sulfonamide]",0.1 to 1
23,"CS(=O)(=O)N1CC2(CCN(C(=O)[C@@H](COCc3ccccc3)NS(=O)(=O)CCCNC3CC3)CC2)c2ccccc21 [Compound 150, (R)-N-(3-(benzyloxy)-1-(1-(methylsulfonyl)spiro[indoline-3,4′-piperidine]-1′-yl)-1-oxopropan-2-yl)-3-(cyclopropylamino)propane-1-sulfonamide]",> 1
24,"CS(=O)(=O)N1CC2(CCN(C(=O)[C@@H](COCc3ccccc3)NS(=O)(=O)CCCN3CCCC3)CC2)c2ccccc21 [Compound 152, (R)-N-(3-(benzyloxy)-1-(1-(methylsulfonyl)spiro[indoline-3,4′-piperidine]-1′-yl)-1-oxopropan-2-yl)-3-(pyrrolidin-1-yl)propane-1-sulfonamide]",< 0.1
25,"NC(=O)c1ccccc1-c1ccc(CNC(=O)[C@@H](COCc2ccccc2)NS(=O)(=O)CCCCl)cc1 [Compound 153, (R)-4′-{[3-Benzyloxy-2-(3-chloro-propane-1-sulfonylamino)-propionylamino]-methyl}-biphenyl-2-carboxylic acid amide]",> 1
